In test [1] the target is EP2 (Homo sapiens (Human), UniProt P43116).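 Also: antagonism of PGE2-stimulated cAMP accumulation in SF295 human glioblastoma cells with endogenous EP2, cAMP read by HTRF, expressed relative to DMSO control.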
Test [2] addresses EP4 (Homo sapiens (Human), UniProt P35408). The experiment in a line: hEP4 cAMP assay (BT549 breast cancer cells, HTRF cAMP). Format: cell-based. Conditions: antagonistic activity; mean values where measured multiple times. The method, then: Plate is pre-incubated 45 minutes at room temperature. Subsequently, 2.5 microliters of PGE2 (final conc. 6 nM) are transferred into the assay plate. Plate is incubated 30 minutes at room temperature.

Chain of EP4 (P35408 whole entry): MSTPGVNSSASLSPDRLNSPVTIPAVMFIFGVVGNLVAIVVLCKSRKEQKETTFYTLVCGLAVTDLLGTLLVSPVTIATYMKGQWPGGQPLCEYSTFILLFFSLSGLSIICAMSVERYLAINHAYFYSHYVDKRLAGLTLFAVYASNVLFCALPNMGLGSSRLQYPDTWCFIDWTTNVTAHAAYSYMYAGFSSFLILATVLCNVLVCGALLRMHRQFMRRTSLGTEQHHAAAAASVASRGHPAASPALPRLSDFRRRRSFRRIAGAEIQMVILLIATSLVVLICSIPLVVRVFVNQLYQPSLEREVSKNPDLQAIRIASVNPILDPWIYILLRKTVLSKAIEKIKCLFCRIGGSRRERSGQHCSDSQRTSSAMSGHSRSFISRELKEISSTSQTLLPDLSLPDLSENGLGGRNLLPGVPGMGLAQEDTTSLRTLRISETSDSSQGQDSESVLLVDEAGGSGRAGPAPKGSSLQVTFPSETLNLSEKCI
Chain of EP2 (P43116 whole entry): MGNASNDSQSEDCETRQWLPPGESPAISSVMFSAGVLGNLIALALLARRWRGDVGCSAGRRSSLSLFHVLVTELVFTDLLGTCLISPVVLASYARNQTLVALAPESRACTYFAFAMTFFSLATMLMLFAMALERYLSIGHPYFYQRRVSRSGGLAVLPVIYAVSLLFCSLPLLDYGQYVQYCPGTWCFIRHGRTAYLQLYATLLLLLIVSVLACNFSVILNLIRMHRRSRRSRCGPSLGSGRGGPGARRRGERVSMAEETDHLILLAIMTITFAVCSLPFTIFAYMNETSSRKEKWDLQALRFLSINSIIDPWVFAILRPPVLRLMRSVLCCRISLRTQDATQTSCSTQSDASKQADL

Usually IC50 stands for the midpoint of a concentration-inhibition curve. A higher IC50 goes with a need for much substance. As for `COc1ccc(F)c2c1cc(C)n2CCNc1cc(-c2ccc(-c3nnc(C)o3)c(F)c2)ncn1` [compound 455], the IC50 turned out to be 74 nM in test [1] and 154 nM in test [2].
Taken in the same sequence, the figures for `Cc1ccc(F)c2c1cc(C)n2CCNc1cc(-c2ccc(-c3n[nH]cc3C(=O)O)cc2)ncn1` [compound 456] were 233 nM and 944 nM.
Taken in the same sequence, the figures for `COc1ccc(F)c2c1cc(C)n2CCNc1cc(-c2ccc(Cn3cccn3)c(F)c2)ncn1` [compound 457] were 888 nM and 480 nM.
As to `COc1ccc(F)c2c1cc(C)n2CCNc1cc(-c2ccc(-c3nc(N)sc3C)cc2)ncn1` [compound 458, {6-[4-(2-Amino-5-methyl-thiazol-4-yl)-phenyl]-pyrimidin-4-yl}-[2-(7-fluoro-4-methoxy-2-methyl-indol-1-yl)-ethyl]-amine], the IC50 in test [1] was found to be 25 nM; in test [2], 74 nM.
For `COc1ccc(F)c2c1cc(C)n2CCNc1cc(-c2ccc(-n3nc(C)cc3C)cc2)ncn1` [compound 459], in that order: 62 nM and 739 nM.
For `CCNc1cc(-c2cc(NCCn3c(C)cc4c5c(cc(Cl)c43)OCO5)ncn2)ccc1C(=O)O` [compound 460, 4-{6-[2-(5-Chloro-7-methyl-[1,3]dioxolo[4,5-e]indol-6-yl)-ethylamino]-pyrimidin-4-yl}-2-ethylamino-benzoic acid], in that order: 4 nM and 146 nM.
Taken in the same sequence, the figures for `COc1cccc2c1cc(C)n2CCNc1cc(-c2ccc3c(c2)CN(CC(C)C)C3=O)ncn1` [compound 462] were 61 nM and 842 nM.
Regarding `CCOc1cc(-c2cc(NCCn3c(C)cc4c(OC)cccc43)ncn2)ccc1CNC1CC1` [compound 463], the IC50 in test [1] came out at 252 nM; in test [2], 741 nM.
For `Cc1ccc(F)c2c1cc(C)n2CCNc1cc(-c2ccc(C(=O)O)c(N3CCCC3)c2)ncn1` [compound 464, 4-{6-[2-(7-Fluoro-2,4-dimethyl-indol-1-yl)-ethylamino]-pyrimidin-4-yl}-2-pyrrolidin-1-yl-benzoic acid], in that order: 15 nM and 459 nM.
Taken in the same sequence, the figures for `CCCN1Cc2cc(-c3cc(NCCn4c(C)cc5c(OC)ccc(F)c54)ncn3)ccc2C1=O` [compound 466, 5-{6-[2-(7-Fluoro-4-methoxy-2-methyl-indol-1-yl)-ethylamino]-pyrimidin-4-yl}-2-propyl-2,3-dihydro-isoindol-1-one] were 33 nM and 229 nM.
Taken in the same sequence, the figures for `Cc1ccc(F)c2c1cc(C)n2CCNc1cc(-c2ccc3c(c2)CN(CC(C)C)C3=O)ncn1` [compound 467] were 387 nM and 994 nM.
For `COc1ccc(F)c2c1cc(C)n2CCNc1cc(-c2ccc(N3CCCS3(=O)=O)cc2)ncn1` [compound 469], the IC50 in test [1] was 68 nM; in test [2], 667 nM.
For `COc1ccc(F)c2c1cc(C)n2CCNc1cc(-c2ccc(C(=O)O)c3c2ccn3C)ncn1` [compound 470], in that order: 63 nM and 735 nM.
Taken in the same sequence, the figures for `CNc1nnc(-c2ccc(-c3cc(NCCn4c(C)cc5c(OC)ccc(F)c54)ncn3)cc2)s1` [compound 471, [2-(7-Fluoro-4-methoxy-2-methyl-indol-1-yl)-ethyl]-{6-[4-(5-methylamino-[1,3,4]thiadiazol-2-yl)-phenyl]-pyrimidin-4-yl}-amine] were 2 nM and 29 nM.
Taken in the same sequence, the figures for `COc1ccc(F)c2c1cc(C)n2CCNc1cc(-c2ccc(C(=O)O)c(OC3CCC3)c2)ncn1` [compound 472, 2-Cyclobutoxy-4-{6-[2-(7-fluoro-4-methoxy-2-methyl-indol-1-yl)-ethylamino]-pyrimidin-4-yl}-benzoic acid] were 5 nM and 66 nM.
For `CCOc1cc(-c2cc(NCCn3c(C)cc4c(OC)ccc(F)c43)ncn2)ccc1CNC1CC1` [compound 473], the IC50 was 538 nM in test [1] and 646 nM in test [2].
For `COc1ccc(F)c2c1cc(C)n2CCNc1cc(-c2ccc3c(c2)CN(CC(C)C)C3=O)ncn1` [compound 475], in that order: 54 nM and 259 nM.
For `COc1ccc(F)c2c1cc(C)n2CCNc1cc(-c2ccc(-c3csc(C(=O)O)n3)cc2)ncn1` [compound 476, 4-(4-{6-[2-(7-Fluoro-4-methoxy-2-methyl-indol-1-yl)-ethylamino]-pyrimidin-4-yl}-phenyl)-thiazole-2-carboxylic acid], in that order: 18 nM and 48 nM.
For `Cc1noc(-c2ccc(-c3cc(NCCn4c(C)cc5c(C)ccc(F)c54)ncn3)cc2)c1C(=O)O` [compound 477], in that order: 122 nM and 574 nM.
Consider `COc1ccc(F)c2c1cc(C)n2CCNc1cc(-c2ccc(C(=O)O)c(N3CCCC3)c2)ncn1` [compound 478, 4-{6-[2-(7-Fluoro-4-methoxy-2-methyl-indol-1-yl)-ethylamino]-pyrimidin-4-yl}-2-pyrrolidin-1-yl-benzoic acid], for which the IC50 in test [1] was determined as 11 nM; in test [2], 665 nM.
Taken in the same sequence, the figures for `Cc1ccc(F)c2c1cc(C)n2CCNc1cc(-c2ccc(C(=O)O)c(NS(C)(=O)=O)c2)ncn1` [compound 479] were 127 nM and 233 nM.
On to `CCOc1cc(-c2cc(NCCn3c(C#N)cc4c(OC)cc(F)cc43)ncn2)ccc1C(=O)O` [compound 480], for which the figures for the IC50 in test [1] and in test [2] were 26 nM and 75 nM, respectively.
For `Cc1cc(F)cc2c1cc(C#N)n2CCNc1cc(-c2ccc(C(=O)O)c(CC(C)C)c2)ncn1` [compound 481], in that order: 61 nM and 112 nM.
For `Cc1cc2c(F)ccc(C#N)c2n1CCNc1cc(-c2ccc(C(=O)O)c(CC(C)C)c2)ncn1` [compound 482], in that order: 686 nM and 986 nM.
Taken in the same sequence, the figures for `CCNc1cc(-c2cc(NCCn3c(C)cc4c(OC)ccc(F)c43)ncn2)cc(F)c1C(=O)O` [compound 483] were 4 nM and 98 nM.
As to `CCCCOc1cc(-c2cc(NCCn3c(C)cc4c(OC)cccc43)ncn2)ccc1C(=O)O` [compound 484], the values for the IC50 in test [1] and in test [2] were 1 nM and 117 nM, respectively.
Taken in the same sequence, the figures for `COc1cccc2c1cc(C)n2CCNc1cc(-c2ccc(C(=O)O)c(OCC(C)C)c2)ncn1` [compound 485] were 3 nM and 245 nM.
In the case of `CCOc1cc(-c2cc(NCCn3c(C)cc4c(OC)c(F)cc(Cl)c43)ncn2)ccc1C(=O)O` [compound 486], the IC50 was determined as 91 nM in test [1] and 325 nM in test [2].
Take `CCOc1cc(-c2cc(NCCn3c(C)cc4c(OC)cc(F)c(F)c43)ncn2)ccc1C(=O)O` [compound 487]: the IC50 is 49 nM in test [1] and 76 nM in test [2].
For `CCOc1cc(-c2cc(NCCn3c(C)cc4c(OC)ccc(Cl)c43)ncn2)cc(Cl)c1C(=O)O` [compound 488], in that order: 70 nM and 219 nM.
For `CCOc1cc(-c2cc(NCCn3c(C)cc4c(OC)ccc(F)c43)ncn2)cc(Cl)c1C(=O)O` [compound 489], in that order: 25 nM and 103 nM.
Taken in the same sequence, the figures for `CCOc1cc(-c2cc(NCCn3c(C)cc4c(OC)ccc(F)c43)ncn2)cc(F)c1C(=O)O` [compound 490] were 17 nM and 165 nM.
On to `CCOc1cc(-c2cc(NCCn3c(C)cc4c(OC)c(Cl)cc(F)c43)ncn2)ccc1C(=O)O` [compound 491], for which the IC50 was determined as 765 nM in test [1] and 707 nM in test [2].
For `CCOc1cc(-c2cc(NCCn3c(C)cc4c(OC)cc(F)cc43)nc(C)n2)ccc1C(=O)O` [compound 492], in that order: 63 nM and 626 nM.
For `CCCOc1cc(-c2cc(NCCn3c(C)cc4c(OC)cc(F)cc43)ncn2)ccc1C(=O)O` [compound 493], in that order: 21 nM and 119 nM.
For `CCOc1cc(-c2cc(NCCn3c(C)cc4c(OC)ccc(F)c43)nc(C)n2)ccc1C(=O)O` [compound 494], in that order: 25 nM and 618 nM.
For `CCCOc1cc(-c2cc(NCCn3c(C)cc4c(OC)ccc(Cl)c43)ncn2)ccc1C(=O)O` [compound 495], the IC50 worked out at 21 nM in test [1] and 350 nM in test [2].
In the case of `CCCOc1cc(-c2cc(NCCn3c(C)cc4c(OC)ccc(F)c43)ncn2)ccc1C(=O)O` [compound 496], the concentration for half-maximal inhibition (IC50) in test [1] was determined as 8 nM; in test [2], 99 nM.
Taken in the same sequence, the figures for `CCCOc1cc(-c2cc(NCCn3c(C)cc4c(OC)cccc43)ncn2)cc(Cl)c1C(=O)O` [compound 497] were 11 nM and 168 nM.
Taken in the same sequence, the figures for `CCCOc1cc(-c2cc(NCCn3c(C)cc4c(OC)cccc43)ncn2)cc(F)c1C(=O)O` [compound 498] were 20 nM and 609 nM.
For `COc1cccc2c1cc(C)n2CCNc1cc(-c2ccc(C(=O)O)c(OC(F)(F)F)c2)ncn1` [compound 499], in that order: 6 nM and 714 nM.
In the case of `Cc1cc2c(F)c(F)cc(Cl)c2n1CCNc1cc(-c2ccc(C(=O)O)c(SC(C)C)c2)ncn1` [compound 500], the IC50 in test [1] amounted to 17 nM; in test [2], 816 nM.
For `Cc1c(F)cc(F)c2c1cc(C)n2CCNc1cc(-c2ccc(C(=O)O)c(CC(C)C)c2)ncn1` [compound 501], in that order: 42 nM and 69 nM.
For `Cc1cc(F)c(F)c2c1cc(C)n2CCNc1cc(-c2ccc(C(=O)O)c(CC(C)C)c2)ncn1` [compound 502], in that order: 149 nM and 114 nM.
Taken in the same sequence, the figures for `Cc1nc(NCCn2c(C)cc3c(C)cc(F)cc32)cc(-c2ccc(C(=O)O)c(CC(C)C)c2)n1` [compound 503] were 58 nM and 499 nM.
`Cc1c(F)cc(Cl)c2c1cc(C)n2CCNc1cc(-c2ccc(C(=O)O)c(SC(C)C)c2)ncn1` [compound 504]: the values for the 50% inhibitory concentration (IC50) in test [1] and in test [2] were 103 nM and 535 nM, respectively.

These data come from US12011444B2, “N-substituted indole derivatives as PGE2 receptor modulators” (Idorsia Pharmaceuticals Ltd, priority 2015, dated 2024).
